Experimental data published in patent US7981867B2, “Use of des-aspartate-angiotensin I” (priority 2005, dated 2011).
“And” between values parts separate entries of the source, which are not always exact repeats. Identical values can stand only once. Like-named read-outs stand apart in the source and are kept apart here.

Columns and labels:
[1] = tested on: GLUT4; assay: Insulin-induced translocation of GLUT4 to plasma membrane in skeletal muscle of diabetic GK rats; type: in vivo; settings: oral treatment for 9 weeks; insulin 0.5 U/kg i.p., 30 minutes; Western blot
Text: Upper panel: Representative Western blot of plasma membrane GLUT4 in skeletal muscle of des-aspartate-angiotensin I treated and non treated diabetic GK rats. Lower panel: Relative (to the non insulin stimulated samples) levels of plasma membrane GLUT4 in skeletal muscle of des-aspartate-angiotensin I treated and control diabetic GK rats.
The diabetic GK rats described in EXAMPLE 9 were similarly treated for another week. At 9 weeks of treatment, animals were fasted overnight and half the animals in each group were intraperitoneally administered with PBS and the other half with insulin (0.5 U/kg). After 30 minutes, the animals were sacrificed by cervical dislocation. Hind limb skeletal muscles were rapidly excised and frozen in liquid nitrogen. Muscle samples were stored at −80° C. until used. The hindlimb muscles were subsequently thawed over an ice pack and plasma membranes were prepared as described by Dombrowaski et al. Thirty μg of protein from the 25% interface of the discontinued sucrose gradient was subjected to SDS-PAGE, transferred to PVDF sheets and incubated with anti-GLUT4 polyclonal primary antibody (1:800), washed and followed by incubation with anti-goat secondary antibody (1:10,000). The bands were detected at 49 kDa. […]

[2] = tested on: serum insulin; assay: Serum insulin level of diabetic GK rats (ELISA); type: in vivo; settings: 600 nmole/kg oral, 8 weeks, serum at 30 min of the oral glucose tolerance test, vs control
Description: Serum from 8 weeks treated animals (as described in EXAMPLE 9) were assayed for insulin concentration by the “Ultra Senstive Rat Insulin ELISA kit” (Crystal Chem. Inc., IL, USA). The values were from serum taken at 30 min of the oral glucose tolerance test.
The diabetic GK rats described in EXAMPLE 9 were similarly treated for another week. At 9 weeks of treatment, animals were fasted overnight and half the animals in each group were intraperitoneally administered with PBS and the other half with insulin (0.5 U/kg). After 30 minutes, the animals were sacrificed by cervical dislocation. Hind limb skeletal muscles were rapidly excised and frozen in liquid nitrogen. Muscle samples were stored at −80° C. until used. The hindlimb muscles were subsequently thawed over an ice pack and plasma membranes were prepared as described by Dombrowaski et al. Thirty μg of protein from the 25% interface of the discontinued sucrose gradient was subjected to SDS-PAGE, transferred to PVDF sheets and incubated with anti-GLUT4 polyclonal primary antibody (1:800), washed and followed by incubation with anti-goat secondary antibody (1:10,000). The bands were detected at 49 kDa. […] As insulin resistance is the hallmark of diabetes, it is concluded that the des-aspartate-angiotensin I exerts marked hypoglycaemic action in diabetic GK rats by overcoming insulin resistance in these animals.

[3] = tested on: Influenza A/Aichi/2/68 virus; type: in vivo, BALB/c mice; settings: for Percentage Weight Change of Individual Mouse: i.p. 60 nmole/kg for 7 days from weight loss 15% or greater, mice 1-7 = c8-c14

Substance: des-aspartate-angiotensin I (RVYIHPFHL; Angiotensin-1; UniProt P01019 26-34, looked up, fragment) [endogenous angiotensin peptide derived from angiotensin I by a specific aminopeptidase; purchased from Bachem]
- insulin-induced translocation of GLUT4 to the plasma membrane in skeletal muscle [1]: significantly enhances
- serum level of insulin [2]: not significantly affected
- serum level of insulin ([2]; listed as des-aspartate-angiotesnin I): no significant difference
- Percentage Weight Change of Individual Mouse ([3]; post infection day 2): 96.3% and 97.1% and 96.6% and 97.3% and 95.8% and 99.3% and 99.8%
- Percentage Weight Change of Individual Mouse ([3]; post infection day 3): 90.3% and 94.6% and 88.6% and 94.7% and 93.9% and 99.4% and 99.0%
- Percentage Weight Change of Individual Mouse ([3]; post infection day 4): 85.7% and 86.2% and 83.3% and 92.1% and 90.8% and 97.5% and 96.6%
- Percentage Weight Change of Individual Mouse ([3]; post infection day 5): 82.8% and 85.7% and 81.0% and 90.1% and 89.0% and 90.3% and 91.7%
- Percentage Weight Change of Individual Mouse ([3]; post infection day 6): 80.8% and 82.7% and 78.2% and 85.2% and 88.8% and 87.5% and 87.4%
- Percentage Weight Change of Individual Mouse ([3]; post infection day 7): 80.7% and 76.8% and 73.9% and 82.8% and 84.4% and 85.0% and 83.8%
- Percentage Weight Change of Individual Mouse ([3]; post infection day 8): 79.7% and 72.9% and 71.2% and 83.2% and 82.4% and 86.2% and 80.4%
- Percentage Weight Change of Individual Mouse ([3]; post infection day 9): 81.4% and 69.9% and 71.8% and 80.5% and 78.6% and 90.3% and 78.8%
- Percentage Weight Change of Individual Mouse ([3]; post infection day 10): 80.5% and 69.0% and 73.2% and 82.3% and 77.7% and 93.0% and 77.5%
- Percentage Weight Change of Individual Mouse ([3]; post infection day 11): 82.1% and 67.7% and 75.8% and 88.9% and 74.5% and 99.3% and 77.1%
- Percentage Weight Change of Individual Mouse ([3]; post infection day 12): 80.0% and 64.9% and 80.1% and 88.9% and 74.5% and 101.2% and 78.9%
- Percentage Weight Change of Individual Mouse ([3]; post infection day 13): 76.6% and 63.0% and 82.8% and 97.4% and 72.3% and 80.8%
- Percentage Weight Change of Individual Mouse ([3]; post infection day 14): 75.2% and 61.3% and 86.3% and 102.8% and 74.0% and 82.6%
- Percentage Weight Change of Individual Mouse ([3]; post infection day 15): 83.0% and 58.9% and 90.1% and 76.7% and 84.3%
- Percentage Weight Change of Individual Mouse ([3]; post infection day 16): 90.3% and 58.9% and 94.6% and 78.6% and 89.4%
- Percentage Weight Change of Individual Mouse ([3]; post infection day 17): 93.5%
- animals survived and regained their original weight ([3]; i.p. 60 nmole/kg for 7 days, 7 treated animals): Six
- influenza A virus in the lung homogenate of the surviving mice ([3]; i.p. 60 nmole/kg for 7 days, assayed in MDCK cells): No influenza A virus was detected
- Fate of individual mouse (death) ([3]; i.p. 60 nmole/kg for 7 days, treated mouse 4, post infection day 18): died
